Activity calls are given as the source filed them. A value given as a limit tells only on which side of the number the result lay.

Experiment [1] is described as follows: Trypanosoma cruzi growth suppression in host cells – NIH3T3 host cells, beta-gal luminescence, confirmation (AID 2044).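 Further: intracellular parasites grown in NIH/3T3 mouse fibroblasts as host cells; luminescent beta-galactosidase reporter signal from transgenic T. cruzi replicating inside host cells; inhibitors lower the luminescence signal.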 Type of experiment: functional, cell-based.
The nature of experiment [2]: NIH3T3 cell viability loss – ATP luminescence, mouse fibroblasts, counter-screen, dose response (AID 2010).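 Further: cells exposed to compound for about 90 hours before reading.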 Type of experiment: functional, cell-based. (A counterscreen serves to expose hits that act by an unwanted route or on another target.)
Another experiment addresses Cytochrome P450 2C19 (Homo sapiens, UniProt P33261). The experiment is described as follows: Cytochrome panel assay with activity outcomes. Panel member name: p450-cyp2c19 Compounds with AC50 equal or less than 10 uM are considered active. Type of experiment: functional. As to conditions: read-out: AC50.
The target of a further experiment is Cytochrome P450 2C9 (Homo sapiens, UniProt P11712).
Sequence of Cytochrome P450 2C9 (P11712 whole entry): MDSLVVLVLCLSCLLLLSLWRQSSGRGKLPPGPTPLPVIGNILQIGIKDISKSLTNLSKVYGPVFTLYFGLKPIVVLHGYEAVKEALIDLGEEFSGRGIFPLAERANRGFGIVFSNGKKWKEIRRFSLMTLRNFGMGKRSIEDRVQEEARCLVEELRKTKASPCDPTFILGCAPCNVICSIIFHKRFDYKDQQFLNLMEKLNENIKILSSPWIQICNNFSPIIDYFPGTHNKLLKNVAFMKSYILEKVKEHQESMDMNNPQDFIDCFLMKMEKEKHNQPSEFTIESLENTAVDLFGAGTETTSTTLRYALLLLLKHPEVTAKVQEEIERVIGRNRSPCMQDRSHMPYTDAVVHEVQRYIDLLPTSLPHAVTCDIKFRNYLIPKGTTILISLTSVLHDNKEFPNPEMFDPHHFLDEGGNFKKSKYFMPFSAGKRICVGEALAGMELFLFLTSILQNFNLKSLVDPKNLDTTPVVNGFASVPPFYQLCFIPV
For another experiment, the target named is Cytochrome P450 3A4 (Homo sapiens, UniProt P08684).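 Further: CYP3A4 tested as one member of a cytochrome P450 panel screen.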
Sequence of Cytochrome P450 3A4 (P08684 whole entry): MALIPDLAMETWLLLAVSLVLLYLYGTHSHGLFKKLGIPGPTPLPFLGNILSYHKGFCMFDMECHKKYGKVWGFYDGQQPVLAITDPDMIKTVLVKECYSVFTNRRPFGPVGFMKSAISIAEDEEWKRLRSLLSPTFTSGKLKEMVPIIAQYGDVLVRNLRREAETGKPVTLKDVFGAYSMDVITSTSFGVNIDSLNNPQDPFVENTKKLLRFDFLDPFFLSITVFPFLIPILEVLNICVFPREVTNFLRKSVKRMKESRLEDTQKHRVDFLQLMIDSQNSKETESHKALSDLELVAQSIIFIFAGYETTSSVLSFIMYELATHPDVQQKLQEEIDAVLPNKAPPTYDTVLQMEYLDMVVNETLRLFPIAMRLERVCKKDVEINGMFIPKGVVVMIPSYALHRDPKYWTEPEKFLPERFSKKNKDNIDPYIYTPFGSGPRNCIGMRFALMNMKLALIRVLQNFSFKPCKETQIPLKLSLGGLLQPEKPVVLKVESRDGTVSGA
In another experiment the target is Cytochrome P450 2D6 (Homo sapiens, UniProt P10635).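 Further: CYP2D6 member of a cytochrome P450 panel assay.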
Sequence of Cytochrome P450 2D6 (P10635 whole entry): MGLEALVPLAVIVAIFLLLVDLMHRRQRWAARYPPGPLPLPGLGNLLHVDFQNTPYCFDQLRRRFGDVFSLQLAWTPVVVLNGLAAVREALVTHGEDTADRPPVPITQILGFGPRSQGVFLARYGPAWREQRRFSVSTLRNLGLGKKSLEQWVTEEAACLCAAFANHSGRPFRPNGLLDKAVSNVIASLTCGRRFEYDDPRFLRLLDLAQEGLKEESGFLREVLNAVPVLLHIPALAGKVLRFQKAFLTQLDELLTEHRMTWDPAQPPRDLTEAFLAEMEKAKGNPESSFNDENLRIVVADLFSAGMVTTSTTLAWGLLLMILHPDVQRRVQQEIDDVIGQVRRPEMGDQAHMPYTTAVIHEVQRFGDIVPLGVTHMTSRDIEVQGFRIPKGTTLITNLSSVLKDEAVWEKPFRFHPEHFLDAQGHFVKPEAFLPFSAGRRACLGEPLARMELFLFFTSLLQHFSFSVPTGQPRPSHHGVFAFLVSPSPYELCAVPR

Sequence of Cytochrome P450 2C19 (P33261 whole entry): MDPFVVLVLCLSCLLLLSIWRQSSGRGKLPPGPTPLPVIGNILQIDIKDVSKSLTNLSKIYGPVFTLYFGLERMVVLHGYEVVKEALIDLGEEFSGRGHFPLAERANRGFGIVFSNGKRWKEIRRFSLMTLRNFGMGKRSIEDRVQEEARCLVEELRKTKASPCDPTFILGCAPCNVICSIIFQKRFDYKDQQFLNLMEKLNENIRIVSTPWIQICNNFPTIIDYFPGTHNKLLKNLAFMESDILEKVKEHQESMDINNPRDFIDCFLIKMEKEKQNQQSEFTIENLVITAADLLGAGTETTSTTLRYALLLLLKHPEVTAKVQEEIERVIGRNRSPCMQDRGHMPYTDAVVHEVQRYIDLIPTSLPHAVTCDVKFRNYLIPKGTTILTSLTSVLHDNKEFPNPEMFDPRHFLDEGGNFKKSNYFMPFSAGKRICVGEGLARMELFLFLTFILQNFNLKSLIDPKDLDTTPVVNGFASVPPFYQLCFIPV

As a reminder, the EC50 is the midpoint of the concentration-response curve. Regarding `CCN(CC)CCN(C(=O)CCOc1ccccc1)c1nc2c(F)cc(F)cc2s1`, the EC50 in experiment [1] is 1.02 µM (active); in experiment [2], > 60 µM (inconclusive).

The term AC50 denotes the concentration at which the activity in the assay is half-maximal. For `COc1ccc(NC(=O)c2cc(-c3cccnc3)nc3ccc(C)cc23)cc1OC`, the AC50 is 10 µM (inconclusive) at Cytochrome P450 2C19 and 7.08 µM (inconclusive) on Cytochrome P450 2C9.

As for `C=CCOc1c(Cl)cc(CNCCCN2CCOCC2)cc1OC`, the values for the EC50 in experiment [1] and in experiment [2] were 0.125 µM (active) and 20.2 µM (active), respectively.

Turning to `O=c1c(-c2cccs2)nc2cncnc2n1C1CC1`, the figures for the AC50 on Cytochrome P450 2C9 and at Cytochrome P450 3A4 were 15.8 µM (inconclusive) and 5.01 µM (inconclusive), respectively.

In the case of `c1ccc(COc2cccc(CNCc3cccnc3)c2)cc1`, the figures for the EC50 in experiment [1] and in experiment [2] were 8.34 µM (active) and > 30 µM (not active), respectively.

With `CCCN1CC[C@@H]2c3cc(O)ccc3CC[C@H]21`, on Cytochrome P450 2D6, the AC50 is 31.6 µM (inconclusive).

`COc1ccc2[nH]c(C(O)(Cc3cccnc3)Cc3cccnc3)cc2c1`: the EC50 in experiment [1] was 2.42 µM (active); in experiment [2], > 60 µM (inconclusive).

Regarding `CN(C)CCCOC(=O)c1ccc(Cl)cc1Cl`, the figures for the EC50 in experiment [1] and in experiment [2] were 2.56 µM (active) and > 60 µM (not active), respectively.

On to `COc1ccc(/C=C(/C#N)C(=O)Nc2cc(C)ccc2C)cc1C(=O)O`, for which the AC50 at Cytochrome P450 2D6 was 25.1 µM (inconclusive).

In the case of `Cc1cccc(NCCNc2cccc(C)c2)c1`, the AC50 at Cytochrome P450 2C9 was 17.8 µM (inconclusive); on Cytochrome P450 2D6, 12.6 µM (inconclusive).

For the molecule `Oc1c(Cl)cc(CN(Cc2cc(Cl)c(O)c(Cl)c2)C2CCCCC2)cc1Cl`, the values for the AC50 at Cytochrome P450 2C9 and at Cytochrome P450 2D6 were 3.98 µM (inconclusive) and 5.01 µM (inconclusive), respectively.

For the molecule `COc1cccc2[nH]c3c(N4CC(C)CC(C)C4)ncnc3c12` (stereo unspecified), the AC50 on Cytochrome P450 3A4 is 0.891 µM (inconclusive). Also, the EC50 in experiment [1] is 1.39 µM (active); in experiment [2], > 60 µM (not active).

For `COC(=O)C1=C(C)N=C2SC(C)C(=O)N2C1/C=C/c1ccccc1` (stereo unspecified), the AC50 at Cytochrome P450 2D6 is 28.2 µM (inconclusive).

Take `Cc1cc(C)c(S(=O)(=O)c2ccc(Cl)cc2C)c(Cl)n1`: the EC50 in experiment [1] is 0.336 µM (active); in experiment [2] it was 35.9 µM (active).

Turning to `CSc1cccc(NC(=S)N(Cc2ccccc2)Cc2cccnc2)c1`, the EC50 in experiment [1] was 0.653 µM (active); in experiment [2] it was > 60 µM (not active).

Take `O=C(NCCN1CCCC1)C1(S(=O)(=O)c2ccc(Cl)cc2)CC1`: the AC50 at Cytochrome P450 2C19 was 25.1 µM (inconclusive); at Cytochrome P450 2D6, 12.6 µM (inconclusive); on Cytochrome P450 3A4, 39.8 µM (inconclusive).

Consider `COc1cc2c(cc1NC(=O)Nc1ccc(F)cc1)oc1ccccc12`, for which the EC50 is 1.94 µM (active) in experiment [1] and > 30 µM (not active) in experiment [2].

On to `Cc1ccc(O)c(C(=O)c2cc(C#N)c(=O)n(-c3c(C)n(C)n(-c4ccccc4)c3=O)c2)c1`, for which the AC50 on Cytochrome P450 2D6 was 10 µM (inconclusive).

With `CCCC[N+]1(C)[C@@H]2CC(OC(=O)[C@@H](CO)c3ccccc3)C[C@H]1[C@H]1O[C@H]12` (stereo partly specified), at Cytochrome P450 2D6, the AC50 is 7.94 µM (inconclusive).

`O=P(c1ccccc1)(c1ccccc1)N1CC2(CC2)CC(O)(c2ccccc2)C1` (stereo unspecified): the values for the AC50 at Cytochrome P450 2C9 and at Cytochrome P450 2D6 were 39.8 µM (inconclusive) and 20 µM (inconclusive), respectively.

For the molecule `c1cnc(N2CCC3(CCNCC3)CC2)nc1`, the AC50 on Cytochrome P450 2D6 is 10 µM (inconclusive); at Cytochrome P450 3A4, 20 µM (inconclusive).

On to `N#Cc1ccc(CN2CCCC3(CCN(C(=O)c4cccc(F)c4)CC3)C2)cc1`, for which the AC50 at Cytochrome P450 2C9 is 39.8 µM (inconclusive); on Cytochrome P450 3A4 it was 10 µM (inconclusive).

Turning to `CCOc1ccc(CNC(=O)C2CCC(=O)N2C2CCCC2)cc1OC` (stereo unspecified), the AC50 on Cytochrome P450 2C19 is 22.4 µM (inconclusive); on Cytochrome P450 2C9, 28.2 µM (inconclusive); at Cytochrome P450 3A4, 25.1 µM (inconclusive).

In the case of `Nc1cccc2cc(S(=O)(=O)Nc3ccc(C(=O)O)cc3)ccc12`, the AC50 was 3.16 µM (inconclusive) on Cytochrome P450 2C19 and 7.94 µM (inconclusive) on Cytochrome P450 2C9.

These data come from ChEMBL document CHEMBL1201862, “PubChem BioAssay data set” (2004).
